According to publication PMC11678245, “The Molecular Basis of the Intrinsic and Acquired Resistance to Azole Antifungals in Aspergillus fumigatus” (Journal of Fungi, 2024):
Several values for one entry are separate records, joined by “and”; a condition that tells them apart may be missing. Identical values can stand only once. Like-named read-outs stand apart in the source and are kept apart here.

Experiments:
[1] = test system: S. cerevisiae strain B (AfCyp51B-6×His, native ScCyp51 retained); test: MIC80 susceptibility, strain B; assay type: cell-based; conditions: Saccharomyces cerevisiae, Table 2, SD pH 6.8, 48 h, 30 °C
Protocol: (§1) The susceptibilities of S. cerevisiae strains to antifungal drugs were determined as minimum growth inhibitory concentration (MIC) values in 200 μL SD pH 6.8 [24]. Serial 2-fold dilutions of 100 μL of azole or control drugs in SD pH 6.8 were prepared in a 96-well microtiter plate. A portion of a 2 mL SD pH 6.8 overnight culture of the test strain was inoculated into 3 mL fresh SD pH 6.8 and incubated for 4 to 6 h at 30 °C to generate logarithmic-phase cells. These cells were then diluted with fresh SD pH 6.8 to OD600nm = 0.01 (3 × 10^4 CFU), and 100 μL of this cell suspension was added to microtiter plate wells. Cell growth after 48 h incubation at 30 °C with shaking at 200 rpm was determined at 600 nm using a BioTek™ Synergy™ 2 multi-Mode microplate reader controlled using Gen5™ Data Analysis Software version 3.16.10 (BioTek Instruments, Winooski, VT, USA). MIC80 values (80% growth inhibition in the presence of the test drug compared with the untreated control) for each yeast construct were determined as technical triplicates repeated three times for three separate clones.

[2] = test system: S. cerevisiae strain A (AfCyp51A-6×His, native ScCyp51 retained); test: MIC80 susceptibility, strain A; assay type: cell-based; conditions: Saccharomyces cerevisiae, Table 2, SD pH 6.8, 48 h, 30 °C
Protocol: as §1

[3] = test system: S. cerevisiae strain ADLS overexpressing ScCYP51-6×His; test: MIC80 susceptibility, strain ADLS; assay type: cell-based, Saccharomyces cerevisiae; conditions: Saccharomyces cerevisiae; Table 2; strain ADLS; SD pH 6.8, 48 h, 30 °C; ± SD; read-out: MIC80
Protocol: as §1

[4] = test system: S. cerevisiae strain ARE Y121F (AfCyp51A-6×His Y121F, AfCprA2, AfErg6-FLAG); test: MIC80 susceptibility, strain Y121F; assay type: cell-based, Saccharomyces cerevisiae; conditions: Saccharomyces cerevisiae, ± SD, read-out: MIC80
Protocol: as §1

[5] = test system: S. cerevisiae strain ADΔΔ (native ScCYP51); test: MIC80 susceptibility, host strain ADΔΔ; assay type: cell-based; conditions: Saccharomyces cerevisiae, Table 2, SD pH 6.8, 48 h, 30 °C
Protocol: as §1

[6] = test system: S. cerevisiae strain ARE I301T (AfCyp51A-6×His I301T, AfCprA2, AfErg6-FLAG); test: MIC80 susceptibility, strain I301T; assay type: cell-based, Saccharomyces cerevisiae; conditions: Saccharomyces cerevisiae, ± SD, read-out: MIC80
Protocol: as §1

[7] = test system: S. cerevisiae strain BRE (AfCyp51B-6×His, AfCprA2, AfErg6-FLAG); test: MIC80 susceptibility, strain BRE; assay type: cell-based, Saccharomyces cerevisiae; conditions: Saccharomyces cerevisiae, strain BRE, ± SD, read-out: MIC80
Protocol: as §1

AfCYP51A-6×His = AfCYP51A-6×His (Aspergillus fumigatus, UniProt Q4WNT5); test: Type II binding of azole drugs (difference spectra); conditions: AfCYP51A
Protocol: (§2) The concentration of AfCYP51A and AfCYP51B, purified using Ni-NTA affinity chromatography and used for the spectrophotometric type I and type II binding assays, was calculated using an extinction co-efficient of λ417nm = 117 mM^−1 cm^−1 applied to the absolute absorption spectrum of the preparations. In addition, the amount of “active” cytochrome P450 enzyme was determined using the carbon monoxide (CO) binding spectra of these preparations.
(§3) Type II binding difference spectra were obtained using 1 μM of affinity-purified CYP51 enzymes. VCZ, PCZ, VT-1161, DCZ, and MCF working solutions were prepared in DMSO, while FLC was prepared in Milli-Q water. Azole drugs were added to the sample cuvette, and corresponding amounts of DMSO or Milli-Q water were added to the reference cuvette. Drug binding curves were plotted using the difference spectrum peak and trough detected in the range of 410–425 nm. Dissociation constants (Kd) were determined by nonlinear regression (Levenberg–Marquardt algorithm) of the difference in absorbance between the peak and trough against the azole concentration using a rearrangement of the Morrison equation or the Hill equation [7]. GraphPad Prism 9.2.0 software was used to identify the best fit for the data.

AfCYP51B-6×His = biological target: T1, AfCYP51B-6×His (Aspergillus fumigatus, UniProt E9QY26); test: as above; conditions: for ΔAmax (type II binding) / Kd: Hill equation; for Hill Number / Kd: type II binding
T1 sequence (E9QY26 1-524): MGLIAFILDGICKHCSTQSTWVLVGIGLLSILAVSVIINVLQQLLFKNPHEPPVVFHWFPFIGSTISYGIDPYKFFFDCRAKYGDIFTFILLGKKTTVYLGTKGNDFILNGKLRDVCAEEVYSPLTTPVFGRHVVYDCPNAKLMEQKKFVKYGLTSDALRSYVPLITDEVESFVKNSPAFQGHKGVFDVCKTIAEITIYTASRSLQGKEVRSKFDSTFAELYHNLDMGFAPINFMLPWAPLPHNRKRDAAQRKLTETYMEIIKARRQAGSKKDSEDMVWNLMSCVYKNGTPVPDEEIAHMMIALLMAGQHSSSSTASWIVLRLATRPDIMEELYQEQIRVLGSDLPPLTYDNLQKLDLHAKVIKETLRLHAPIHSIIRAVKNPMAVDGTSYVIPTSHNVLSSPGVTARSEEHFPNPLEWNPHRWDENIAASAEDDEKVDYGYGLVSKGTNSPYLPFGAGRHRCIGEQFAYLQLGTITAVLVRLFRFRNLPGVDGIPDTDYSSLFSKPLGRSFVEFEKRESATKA
Protocol: as §2, §3

[8] = test system: S. cerevisiae strain AR (AfCyp51A-6×His, AfCprA2-6×His); test: MIC80 susceptibility, strain AR; assay type: cell-based, Saccharomyces cerevisiae
Protocol: as §1

[9] = test system: S. cerevisiae strain ARE Y121F T289A (AfCyp51A-6×His Y121F T289A, AfCprA2, AfErg6-FLAG); test: MIC80 susceptibility, strain Y121F T289A; assay type: cell-based, Saccharomyces cerevisiae; conditions: Saccharomyces cerevisiae, ± SD, read-out: MIC80
Protocol: as §1

[10] = test system: S. cerevisiae strain ARE T289A (AfCyp51A-6×His T289A, AfCprA2, AfErg6-FLAG); test: MIC80 susceptibility, strain T289A; assay type: cell-based, Saccharomyces cerevisiae; conditions: for MIC80: Saccharomyces cerevisiae, ± SD, read-out: MIC80
Protocol: as §1

[11] = test system: S. cerevisiae strain ARE (AfCyp51A-6×His, AfCprA2, AfErg6-FLAG); test: MIC80 susceptibility, strain ARE; assay type: cell-based, Saccharomyces cerevisiae; conditions: Saccharomyces cerevisiae, strain ARE, ± SD, read-out: MIC80
Protocol: as §1

[12] = test system: S. cerevisiae strain BR (AfCyp51B-6×His, AfCprA2-6×His); test: MIC80 susceptibility, strain BR; assay type: cell-based; conditions: Saccharomyces cerevisiae; Table 2; strain BR; SD pH 6.8, 48 h, 30 °C; ± SD; read-out: MIC80
Protocol: as §1

[13] = Table 2, strain Y121F, SD pH 6.8, 48 h, 30 °C
[14] = 48 h, pH 6.8, Table 2, strain I301T, SD pH 6.8, 48 h, 30 °C
[15] = Table 2, SD pH 6.8, 48 h, 30 °C
[16] = Table 2, strain Y121F T289A, SD pH 6.8, 48 h, 30 °C
[17] = 48 h, pH 6.8, Table 2, strain T289A, SD pH 6.8, 48 h, 30 °C

Sequence of AfCYP51A-6×His (Q4WNT5 whole entry): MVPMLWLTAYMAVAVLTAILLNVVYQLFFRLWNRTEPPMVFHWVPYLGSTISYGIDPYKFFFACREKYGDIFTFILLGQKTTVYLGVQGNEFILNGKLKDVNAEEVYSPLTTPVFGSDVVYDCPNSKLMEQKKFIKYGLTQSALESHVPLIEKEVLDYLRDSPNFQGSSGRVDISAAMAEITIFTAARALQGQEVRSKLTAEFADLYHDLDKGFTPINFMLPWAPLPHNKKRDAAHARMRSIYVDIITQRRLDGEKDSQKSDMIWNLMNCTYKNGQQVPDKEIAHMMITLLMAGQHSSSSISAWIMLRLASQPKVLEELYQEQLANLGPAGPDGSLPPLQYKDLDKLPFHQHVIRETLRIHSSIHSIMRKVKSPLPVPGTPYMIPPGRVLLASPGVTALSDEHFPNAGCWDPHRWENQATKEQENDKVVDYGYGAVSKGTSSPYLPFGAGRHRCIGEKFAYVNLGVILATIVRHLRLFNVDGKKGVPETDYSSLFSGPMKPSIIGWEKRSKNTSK

Compound | MIC80 [1] | MIC80 [2] | MIC80 [4, 13] | MIC80 [5] | MIC80 [6, 14] | MIC80 [7, 15] | λtrough (type II difference spectrum) (AfCYP51B-6×His; 1 μM enzyme) | ΔAmax (type II binding) (AfCYP51B-6×His; 1 μM enzyme) | Hill Number (AfCYP51B-6×His) | Kd (AfCYP51B-6×His; 1 μM enzyme) | MIC80 [9, 16] | MIC80 [10, 17] | also measured
CC[C@@H]([C@H](C)O)n1ncn(-c2ccc(N3CCN(c4ccc(OC[C@@H]5CO[C@@](Cn6cncn6)(c6ccc(F)cc6F)C5)cc4)CC3)cc2)c1=O [PCZ, posaconazole] | 0.25 ± 0.03 µM | 0.21 ± 0.01 µM | 0.06 ± 0.01 µM | 0.1 ± 0.01 µM | 0.09 ± 0.02 µM | 0.1 ± 0.01 µM | 388 nm | 0.10 | 1.41 | 2.1 µM and 2.15 µM | 0.11 ± 0.01 µM | 0.06 µM | MIC80 [3]: 0.29 ± 0.04 µM; MIC80 ([4]; Table 3, strain ARE Y121F): 0.025 ± 0.003 µM; MIC80 ([6]; Table 3, strain ARE I301T): 0.055 ± 0.001 µM; MIC80 ([7]; Table 3): 0.06 ± 0.037 µM; λpeak (type II difference spectrum) (AfCYP51A-6×His; 1 μM enzyme): 423 nm; λtrough (type II difference spectrum) (AfCYP51A-6×His; 1 μM enzyme): 395 nm; ΔAmax (type II binding) (AfCYP51A-6×His; 1 μM enzyme, Hill equation): 0.07; Hill Number (AfCYP51A-6×His; type II binding): 1.35; Kd (AfCYP51A-6×His; type II binding, 1 μM enzyme, Hill equation): 1.7 µM and 1.72 µM; MIC80 ([8]; Saccharomyces cerevisiae, 48 h, pH 6.8): 0.19 ± 0.01 µM; MIC80 ([8]; Table 2, strain AR, SD pH 6.8, 48 h, 30 °C, ± SD): 0.19 ± 0.02 µM; MIC80 ([9]; Table 3, strain ARE Y121F T289A): 0.101 ± 0.017 µM; increase in susceptibility of strain T289A compared to strains ARE and ADΔΔ [10]: 40%; MIC80 ([10]; Table 3, strain ARE T289A): 0.043 ± 0.019 µM; MIC80 ([11]; Table 3): 0.05 ± 0.017 µM; MIC80 [12]: 0.17 ± 0.02 µM
O[C@@](Cn1cnnn1)(c1ccc(F)cc1F)C(F)(F)c1ccc(-c2ccc(OCC(F)(F)F)cc2)cn1 [VT-1161, oteseconazole] | 0.05 ± 0.01 µM | 0.03 µM | 0.53 ± 0.02 µM | 0.01 µM | 0.14 ± 0.04 µM | 0.06 ± 0.01 µM | 391 nm | 0.11 | 0.87 | 3.23 ± 2.5 µM | 1.07 ± 0.05 µM | 0.02 µM | λpeak (type II difference spectrum) (AfCYP51B-6×His; 1 μM enzyme): 423 nm; greater susceptibility (MIC80) of strain T289A compared with strain ARE [10]: 21 fold; MIC80 [11, 15]: 0.43 ± 0.05 µM
